The values below come from ChEMBL document CHEMBL4842385, “Indirubin Derivatives as Dual Inhibitors Targeting Cyclin-Dependent Kinase and Histone Deacetylase for Treating Cancer” (J Med Chem, 2021).

pIC50: −log10 of the molar value.

For test [1], the target named is CDK2/Cyclin A2 (Homo sapiens, UniProt P24941). Briefly: Inhibition of full length human CDK2 (1 to 298 end residues)/N-terminal GST-tagged CyclinA2 (1 to 432 residues) expressed in baculovirus expression system preincubated for 10 mins followed by substrate and ATP addition by mobility shift assay.
Test [2] addresses Histone deacetylase 3/Nuclear receptor corepressor 2 (HDAC3/NCoR2) (Homo sapiens, UniProt O15379). Briefly: Inhibition of C-terminal His-tagged recombinant human HDAC3 (1 to 428 residues)/N-terminal GST-tagged recombinant human NCoR2 (395 to 489 residues) co-expressed in baculovirus infected Sf9 cells measured after 30 mins by fluorescence microplate reader assay.
The target of test [3] is Histone deacetylase (Homo sapiens) (UniProt Q13547+O15379+Q9UBN7+Q92769+Q9UQL6+Q8WUI4+Q9BY41+Q96DB2+P56524+Q9UKV0+Q969S8). The following applies: HeLa, Nucleus, dose 1000.0 nM, time 1.0 hrs.
The target of test [4] is Histone deacetylase 1 (Homo sapiens, UniProt Q13547). Briefly: Inhibition of HDAC1 (unknown origin) measured after 30 mins by fluorescence microplate reader assay.
Sequence of Histone deacetylase 1 (Q13547 whole entry): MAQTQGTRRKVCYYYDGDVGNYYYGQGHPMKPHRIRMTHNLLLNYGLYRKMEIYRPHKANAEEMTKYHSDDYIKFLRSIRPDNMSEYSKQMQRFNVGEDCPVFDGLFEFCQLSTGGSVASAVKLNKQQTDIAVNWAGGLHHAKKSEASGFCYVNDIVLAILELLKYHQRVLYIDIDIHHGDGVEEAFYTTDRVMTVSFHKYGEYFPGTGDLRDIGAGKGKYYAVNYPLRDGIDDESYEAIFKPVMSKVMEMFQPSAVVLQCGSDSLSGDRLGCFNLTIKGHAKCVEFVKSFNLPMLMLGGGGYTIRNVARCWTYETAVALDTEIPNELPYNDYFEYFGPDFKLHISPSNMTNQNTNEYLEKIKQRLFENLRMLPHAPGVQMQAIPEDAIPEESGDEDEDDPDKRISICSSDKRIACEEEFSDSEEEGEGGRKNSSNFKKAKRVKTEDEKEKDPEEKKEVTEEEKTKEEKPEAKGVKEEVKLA
The target in test [5] is CDK2/Cyclin A2 (Homo sapiens) (UniProt P24941+P20248). Conditions: dose 100.0 nM, time 10.0 min.
Test [6] addresses T1, Histone deacetylase 7 (Homo sapiens, UniProt Q8WUI4).
T1 sequence (Q8WUI4 whole entry): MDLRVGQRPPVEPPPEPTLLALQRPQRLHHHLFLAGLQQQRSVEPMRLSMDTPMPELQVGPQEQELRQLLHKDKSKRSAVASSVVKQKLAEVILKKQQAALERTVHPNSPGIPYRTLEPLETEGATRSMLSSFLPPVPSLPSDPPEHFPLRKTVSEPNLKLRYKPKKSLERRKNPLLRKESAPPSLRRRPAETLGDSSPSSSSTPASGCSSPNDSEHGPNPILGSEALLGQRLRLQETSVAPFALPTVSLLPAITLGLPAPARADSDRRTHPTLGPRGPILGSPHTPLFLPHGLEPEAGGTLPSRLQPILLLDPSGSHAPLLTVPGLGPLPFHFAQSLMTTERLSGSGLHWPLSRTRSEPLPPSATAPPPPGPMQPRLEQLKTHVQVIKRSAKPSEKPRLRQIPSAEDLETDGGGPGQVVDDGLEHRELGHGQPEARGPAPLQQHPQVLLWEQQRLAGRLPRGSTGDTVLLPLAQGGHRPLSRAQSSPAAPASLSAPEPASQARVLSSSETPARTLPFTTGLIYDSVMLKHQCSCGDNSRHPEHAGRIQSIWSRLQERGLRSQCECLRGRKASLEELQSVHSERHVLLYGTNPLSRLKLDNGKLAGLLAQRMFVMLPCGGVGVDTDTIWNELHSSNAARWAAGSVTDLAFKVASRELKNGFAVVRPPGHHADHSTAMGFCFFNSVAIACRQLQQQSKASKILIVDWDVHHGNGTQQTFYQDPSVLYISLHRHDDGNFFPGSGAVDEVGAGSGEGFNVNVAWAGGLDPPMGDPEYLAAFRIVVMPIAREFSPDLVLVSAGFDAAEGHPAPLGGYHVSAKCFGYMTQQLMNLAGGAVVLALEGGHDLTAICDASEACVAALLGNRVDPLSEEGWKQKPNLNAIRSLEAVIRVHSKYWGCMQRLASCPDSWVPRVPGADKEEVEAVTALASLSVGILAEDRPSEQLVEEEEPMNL
Briefly: Inhibition of HDAC7 (unknown origin) measured after 30 mins by fluorescence microplate reader assay.

The target in test [7] is Histone deacetylase 2 (Homo sapiens, UniProt Q92769). Briefly: Inhibition of HDAC2 (unknown origin) measured after 30 mins by fluorescence microplate reader assay.
Sequence of Histone deacetylase 2 (Q92769 whole entry): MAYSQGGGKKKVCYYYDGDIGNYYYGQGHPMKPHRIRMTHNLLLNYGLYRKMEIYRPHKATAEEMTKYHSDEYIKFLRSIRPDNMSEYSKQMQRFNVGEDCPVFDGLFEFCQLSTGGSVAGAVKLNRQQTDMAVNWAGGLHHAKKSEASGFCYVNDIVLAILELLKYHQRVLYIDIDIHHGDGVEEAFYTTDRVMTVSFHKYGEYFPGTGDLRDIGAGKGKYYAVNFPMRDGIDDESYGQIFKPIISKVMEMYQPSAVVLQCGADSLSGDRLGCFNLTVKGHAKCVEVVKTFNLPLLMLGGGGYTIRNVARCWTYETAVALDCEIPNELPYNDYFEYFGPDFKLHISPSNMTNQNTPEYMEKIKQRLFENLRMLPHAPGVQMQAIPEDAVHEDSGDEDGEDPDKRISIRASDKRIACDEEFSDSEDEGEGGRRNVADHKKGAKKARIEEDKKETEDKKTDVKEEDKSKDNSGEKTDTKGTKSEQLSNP
For test [8], the target named is T2, Protein deacetylase HDAC6 (Homo sapiens, UniProt Q9UBN7).
T2 sequence (Q9UBN7 whole entry): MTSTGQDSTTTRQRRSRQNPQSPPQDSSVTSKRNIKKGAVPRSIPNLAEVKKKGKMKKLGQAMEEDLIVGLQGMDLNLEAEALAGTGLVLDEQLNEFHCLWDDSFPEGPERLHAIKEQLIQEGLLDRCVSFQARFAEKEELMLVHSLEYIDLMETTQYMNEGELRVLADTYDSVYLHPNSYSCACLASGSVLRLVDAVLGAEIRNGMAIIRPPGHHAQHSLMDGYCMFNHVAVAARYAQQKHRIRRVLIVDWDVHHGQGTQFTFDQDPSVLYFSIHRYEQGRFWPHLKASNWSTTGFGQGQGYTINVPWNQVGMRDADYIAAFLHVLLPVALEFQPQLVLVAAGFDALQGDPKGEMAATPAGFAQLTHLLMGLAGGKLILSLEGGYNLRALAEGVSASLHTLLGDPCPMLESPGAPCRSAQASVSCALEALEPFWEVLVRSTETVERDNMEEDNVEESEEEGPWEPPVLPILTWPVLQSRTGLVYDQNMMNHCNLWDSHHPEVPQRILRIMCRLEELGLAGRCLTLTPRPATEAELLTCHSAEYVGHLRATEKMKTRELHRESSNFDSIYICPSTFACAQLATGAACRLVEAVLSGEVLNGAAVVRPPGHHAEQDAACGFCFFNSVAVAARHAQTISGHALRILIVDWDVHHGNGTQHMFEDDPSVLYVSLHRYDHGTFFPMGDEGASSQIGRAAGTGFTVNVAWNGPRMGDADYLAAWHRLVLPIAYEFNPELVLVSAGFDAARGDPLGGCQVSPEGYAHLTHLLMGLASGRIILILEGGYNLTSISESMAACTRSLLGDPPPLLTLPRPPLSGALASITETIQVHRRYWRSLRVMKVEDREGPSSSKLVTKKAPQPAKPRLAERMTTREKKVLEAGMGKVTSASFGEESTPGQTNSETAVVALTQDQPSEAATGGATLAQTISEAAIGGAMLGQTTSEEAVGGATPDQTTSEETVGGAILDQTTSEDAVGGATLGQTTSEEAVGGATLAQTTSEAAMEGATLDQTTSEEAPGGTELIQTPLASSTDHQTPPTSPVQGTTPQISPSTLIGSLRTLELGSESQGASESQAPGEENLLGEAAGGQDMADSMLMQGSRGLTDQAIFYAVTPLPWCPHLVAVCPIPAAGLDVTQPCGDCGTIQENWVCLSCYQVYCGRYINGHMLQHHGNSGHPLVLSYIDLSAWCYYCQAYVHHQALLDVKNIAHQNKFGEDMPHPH
Briefly: Inhibition of recombiant human HDAC6 using fluorogenic HDAC substrate 3 measured after 30 mins by fluorescence microplate reader assay.

In test [9] the target is Histone deacetylase 4 (Homo sapiens, UniProt P56524). Briefly: Inhibition of HDAC4 (unknown origin) measured after 30 mins by fluorescence microplate reader assay.
Sequence of Histone deacetylase 4 (P56524 whole entry): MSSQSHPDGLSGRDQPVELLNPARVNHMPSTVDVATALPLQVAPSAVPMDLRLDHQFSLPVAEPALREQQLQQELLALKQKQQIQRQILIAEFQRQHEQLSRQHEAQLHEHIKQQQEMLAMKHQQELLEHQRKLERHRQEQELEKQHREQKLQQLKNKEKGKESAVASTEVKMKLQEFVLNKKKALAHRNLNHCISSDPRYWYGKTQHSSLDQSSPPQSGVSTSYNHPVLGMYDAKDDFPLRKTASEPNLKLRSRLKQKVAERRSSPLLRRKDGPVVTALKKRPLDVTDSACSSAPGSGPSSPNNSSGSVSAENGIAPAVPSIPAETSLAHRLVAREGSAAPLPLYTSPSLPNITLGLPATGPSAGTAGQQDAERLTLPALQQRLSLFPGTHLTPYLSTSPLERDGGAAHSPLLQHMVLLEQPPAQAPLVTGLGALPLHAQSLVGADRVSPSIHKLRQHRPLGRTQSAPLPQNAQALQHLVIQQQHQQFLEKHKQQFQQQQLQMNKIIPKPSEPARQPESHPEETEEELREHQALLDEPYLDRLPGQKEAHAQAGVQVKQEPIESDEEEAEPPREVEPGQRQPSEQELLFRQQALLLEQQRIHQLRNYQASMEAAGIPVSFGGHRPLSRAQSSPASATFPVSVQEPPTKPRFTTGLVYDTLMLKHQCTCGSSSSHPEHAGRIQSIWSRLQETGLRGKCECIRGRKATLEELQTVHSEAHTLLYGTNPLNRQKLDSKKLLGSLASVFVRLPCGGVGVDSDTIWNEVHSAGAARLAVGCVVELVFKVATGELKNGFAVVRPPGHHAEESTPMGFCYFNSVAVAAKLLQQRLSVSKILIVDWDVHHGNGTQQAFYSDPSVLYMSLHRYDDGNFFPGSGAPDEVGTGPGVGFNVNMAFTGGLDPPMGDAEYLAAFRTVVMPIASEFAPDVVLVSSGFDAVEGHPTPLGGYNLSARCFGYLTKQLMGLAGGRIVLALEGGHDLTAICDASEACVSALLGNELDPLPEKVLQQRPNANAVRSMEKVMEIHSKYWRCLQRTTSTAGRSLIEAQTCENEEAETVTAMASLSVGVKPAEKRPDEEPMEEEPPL

Sequence of Histone deacetylase 3/Nuclear receptor corepressor 2 (HDAC3/NCoR2) (O15379 whole entry, the tested form may be a part): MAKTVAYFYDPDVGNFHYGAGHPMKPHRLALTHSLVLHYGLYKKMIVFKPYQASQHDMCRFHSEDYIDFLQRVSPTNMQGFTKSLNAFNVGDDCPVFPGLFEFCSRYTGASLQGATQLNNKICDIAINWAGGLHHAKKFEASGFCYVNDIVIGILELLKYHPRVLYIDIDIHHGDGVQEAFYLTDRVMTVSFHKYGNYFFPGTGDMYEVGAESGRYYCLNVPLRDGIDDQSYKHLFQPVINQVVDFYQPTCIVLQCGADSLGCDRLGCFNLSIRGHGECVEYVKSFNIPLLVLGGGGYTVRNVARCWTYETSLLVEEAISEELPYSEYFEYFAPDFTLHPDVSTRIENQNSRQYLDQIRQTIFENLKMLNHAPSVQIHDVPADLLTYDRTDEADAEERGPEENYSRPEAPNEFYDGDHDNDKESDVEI
Sequence of Histone deacetylase 3/Nuclear receptor corepressor 2 (HDAC3/NCoR2) (Q9Y618 whole entry, further chain, the tested form may be a part): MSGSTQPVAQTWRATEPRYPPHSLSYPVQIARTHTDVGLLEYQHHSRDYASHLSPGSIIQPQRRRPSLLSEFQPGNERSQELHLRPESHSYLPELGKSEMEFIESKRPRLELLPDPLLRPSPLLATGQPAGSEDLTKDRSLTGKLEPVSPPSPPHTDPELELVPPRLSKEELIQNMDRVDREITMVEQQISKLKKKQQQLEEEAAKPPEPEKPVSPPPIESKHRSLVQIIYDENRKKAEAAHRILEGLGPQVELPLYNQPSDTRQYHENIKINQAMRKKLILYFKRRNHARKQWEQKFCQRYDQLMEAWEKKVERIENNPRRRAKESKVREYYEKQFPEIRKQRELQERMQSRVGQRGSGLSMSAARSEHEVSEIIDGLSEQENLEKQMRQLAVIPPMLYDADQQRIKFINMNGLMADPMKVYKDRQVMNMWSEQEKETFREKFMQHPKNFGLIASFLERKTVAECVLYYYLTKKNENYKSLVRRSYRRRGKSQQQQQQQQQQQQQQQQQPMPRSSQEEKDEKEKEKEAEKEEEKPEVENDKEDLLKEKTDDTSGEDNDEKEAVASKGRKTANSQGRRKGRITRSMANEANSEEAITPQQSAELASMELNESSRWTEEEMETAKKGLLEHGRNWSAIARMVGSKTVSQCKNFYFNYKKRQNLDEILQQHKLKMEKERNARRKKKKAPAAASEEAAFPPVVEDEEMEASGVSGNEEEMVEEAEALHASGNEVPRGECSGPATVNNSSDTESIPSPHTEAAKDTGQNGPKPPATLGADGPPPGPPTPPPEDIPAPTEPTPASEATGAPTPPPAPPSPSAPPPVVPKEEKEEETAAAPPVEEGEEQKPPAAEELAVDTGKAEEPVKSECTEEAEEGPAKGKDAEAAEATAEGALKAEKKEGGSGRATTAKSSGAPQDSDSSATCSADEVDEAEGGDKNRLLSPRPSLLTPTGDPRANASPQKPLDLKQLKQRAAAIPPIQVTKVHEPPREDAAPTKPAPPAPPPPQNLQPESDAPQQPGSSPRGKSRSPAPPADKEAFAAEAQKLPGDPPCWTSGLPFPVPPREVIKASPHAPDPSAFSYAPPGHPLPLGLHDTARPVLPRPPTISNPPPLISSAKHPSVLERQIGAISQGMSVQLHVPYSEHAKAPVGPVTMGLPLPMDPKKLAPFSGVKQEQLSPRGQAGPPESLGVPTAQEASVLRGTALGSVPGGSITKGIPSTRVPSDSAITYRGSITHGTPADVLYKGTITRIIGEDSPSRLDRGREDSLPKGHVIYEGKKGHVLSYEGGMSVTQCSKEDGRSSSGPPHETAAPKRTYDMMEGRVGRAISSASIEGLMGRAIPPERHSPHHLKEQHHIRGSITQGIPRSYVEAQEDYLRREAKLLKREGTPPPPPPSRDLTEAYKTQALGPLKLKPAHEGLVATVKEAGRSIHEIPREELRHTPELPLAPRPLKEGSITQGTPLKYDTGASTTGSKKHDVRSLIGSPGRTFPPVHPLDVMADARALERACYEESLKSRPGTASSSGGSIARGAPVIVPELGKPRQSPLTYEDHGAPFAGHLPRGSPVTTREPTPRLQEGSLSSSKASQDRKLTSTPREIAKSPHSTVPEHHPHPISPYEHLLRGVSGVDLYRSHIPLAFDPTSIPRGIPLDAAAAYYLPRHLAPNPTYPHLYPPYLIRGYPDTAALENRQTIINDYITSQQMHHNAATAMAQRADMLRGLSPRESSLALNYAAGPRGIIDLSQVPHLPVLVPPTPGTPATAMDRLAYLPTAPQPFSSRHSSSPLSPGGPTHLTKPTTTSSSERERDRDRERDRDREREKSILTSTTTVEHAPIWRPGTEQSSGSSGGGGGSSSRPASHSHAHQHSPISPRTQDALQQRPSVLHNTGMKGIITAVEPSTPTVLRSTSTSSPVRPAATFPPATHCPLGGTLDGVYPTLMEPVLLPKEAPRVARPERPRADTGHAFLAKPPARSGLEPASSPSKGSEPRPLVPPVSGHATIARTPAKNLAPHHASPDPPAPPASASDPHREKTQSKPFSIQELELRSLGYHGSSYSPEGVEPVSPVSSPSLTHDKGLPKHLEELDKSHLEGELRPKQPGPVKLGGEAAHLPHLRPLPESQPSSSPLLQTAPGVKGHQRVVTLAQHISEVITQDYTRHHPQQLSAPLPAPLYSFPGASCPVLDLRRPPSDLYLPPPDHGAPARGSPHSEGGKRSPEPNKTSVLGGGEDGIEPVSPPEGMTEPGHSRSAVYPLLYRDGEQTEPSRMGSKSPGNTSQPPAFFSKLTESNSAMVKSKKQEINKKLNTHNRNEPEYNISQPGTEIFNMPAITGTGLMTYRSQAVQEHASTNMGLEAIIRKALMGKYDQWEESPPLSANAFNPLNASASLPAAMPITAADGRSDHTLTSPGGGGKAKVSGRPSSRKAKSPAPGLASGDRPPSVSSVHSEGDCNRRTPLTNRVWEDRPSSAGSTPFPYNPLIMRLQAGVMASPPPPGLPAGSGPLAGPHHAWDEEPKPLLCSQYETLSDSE

For orientation: pIC50 means −log10 of the IC50, conventionally taken in molar units. By inhibition is commonly meant how much of the control response was suppressed. For the molecule `C#CCN1C(=O)/C(=C2\Nc3ccccc3\C2=N/OCCCC(=O)NO)c2ccccc21`, the pIC50 in test [1] was under 6.00; in [2], under 4.00; in [4] it was under 4.00; in test [6], under 5.30; in test [7], under 4.00; in [8], 5.73. Besides, the pIC50 in test [9] was under 4.00. The inhibition in test [3] stood at 23%; in [5], 4.5%.
For the molecule `O=C(CCCO/N=C1/C(=C2/C(=O)Nc3ccccc32)Nc2ccccc21)NO`, the pIC50 in test [1] is 7.22; in [2], under 5.30; in test [4], under 5.30; in test [6], under 5.30; in test [7], under 5.30; in test [8], 6.89. In addition, in [9], the pIC50 was under 5.30. Further, the inhibition in test [3] is 51%; in test [5], 66.8%.
In the case of `O=C(O)CCCO/N=C1/C(=C2/C(=O)Nc3ccccc32)Nc2ccccc21`, the negative logarithm of the IC50 (pIC50) in test [1] is 6.92; in test [2] it was under 5.30; in test [4], under 5.30; in test [6], under 5.30; in test [7] it was under 5.30; in test [8], under 5.30. Also, the pIC50 in [9] was under 5.30. For the same molecule, the figures for the inhibition in test [3] and in [5] were 0.1% and 34.9%, respectively.
